Read-outs that look alike come from different tables or passages of the source. Square brackets hold non-standard residues; d marks the D form. Peptide text beside a SMILES is read from it. * marks the point of attachment. Phe(4-(2-MeO-Ph)) = COc1ccccc1-c1ccc(C[C@H](N)C(=O)O)cc1; Cyclohexanoyl(1S,3S-3-NH2) = N[C@H]1CCC[C@H](C(=O)*)C1; Trp(5-OMe) = COc1ccc2[nH]cc(C[C@H](N)C(=O)O)c2c1; Trp(5-OH) = N[C@@H](Cc1c[nH]c2ccc(O)cc12)C(=O)O; NHPh(4-CH2-morpholino) = c1cc(N*)ccc1CN1CCOCC1; NH(4-morpholinophenyl) = c1cc(N2CCOCC2)ccc1N*; Bip = N[C@@H](Cc1ccc(-c2ccccc2)cc1)C(=O)O; hArg = N=C(N)NCCCC[C@H](N)C(=O)O; X2 = Fc1cc(N*)ccc1N1CCOCC1; X3 = c1cc(N2CCNCC2)ccc1N*
Assays:
[1] = target: T1, recombinant EphA4 ligand binding domain (Homo sapiens, UniProt P54764, C204A); experiment: Isothermal titration calorimetry (ITC) against EphA4-LBD
T1 construct: His tag (N); made in house; host or cells: E. coli Rosetta-Gami B(DE3), pET15b
Protocol: (§1) Peptides were synthesized by using standard solid-phase synthesis protocol, using the BAL resin as anchoring for the C-terminal amines. Isothermal Titration Calorimetry (ITC) measurements were performed in a reverse fashion by titrating the protein into the ligand solution. Solution nuclear magnetic resonance (NMR) experiments were conducted on a 700 MHz Bruker Avance spectrometer equipped with a TCI cryoprobe. Each protein sample was dissolved into an NMR tube at a final concentration of 20 μM (1% DMSO-d6) in the presence of 20 μM of each compound.
The fragments were transformed into Rosetta-Gami B(DE3) competent cells and grown in LB medium at 37° C. with 100 μg/mL of ampicillin until reaching an OD600 of 0.6-0.7 followed by induction with 0.4 mM IPTG overnight at 20° C. Bacteria were then collected by centrifugation and lysed by sonication at 4° C. […] EphA4 LBD with ^13C^ε/^1H^ε-Met labeled was expressed like previously described but adding a suspension of 100 mg of ^13C^ε/^1H^ε-Methionine in 1 mL of DMSO per liter of LB medium, 10 minutes before induction. […] Transformation, expression, and purification of EphA3-LBD chimera was performed as described above for EphA4-LBD.
Isothermal titration calorimetry (ITC) measurements were performed using the Affinity ITC Autosampler from TA Instruments (New Castle, Del.). The titrations were performed in a reverse fashion by titrating the protein into the ligand solution. […] The syringe was filled with a 100 μM solution of EphA4-LBD, EphA3-LBD Chimera, or EphA2-LBD, and 20 injections of 2.5 μL each were performed into the cell containing a 20 μM solution of the compounds. The injections were made at 200 s or 400 s intervals with a stirring speed of 75 rpm. All the solutions were kept in the autosampler at 4° C. The analysis of the thermodynamics signatures and for dissociation constant determination was performed by the NanoAnalyze software (TA Instruments, New Castle, Del.) and subsequently exported into Microsoft Excel.

[2] = target: T2, ^13C^ε-Met-labeled EphA4-LBD (Homo sapiens, UniProt P54764, C204A); experiment: 2D [13C,1H] HSQC NMR chemical shift perturbation of Met resonances; format: binding; conditions: for Δδ ^13C^ϵ/^1H^ϵ Met 164: protein 20 μM, 20 μM of each compound; for Δδ Met 60 / Δδ Met 115 / Δδ Met 164: test ligands at 40 μM, EphA4-LDB at 20 μM, Table 8
T2 construct: His tag (N); made in house; host or cells: E. coli Rosetta-Gami B(DE3), pET15b
Protocol: as §1, with “Each protein sample was dissolved into an NMR tube at a final concentration of 20 μM (1% DMSO-d6) in the presence of 20 μM of each compound.” left out
2D [^13C,^1H] correlation NMR spectra measured with such protein targets, collected in absence or presence of test ligands can be used to monitor ligand binding and make, albeit qualitative, determinations on possible conformational changes induced by test ligands on the protein target. […] In targeting EphA4, an important aspect regarding the activity of its ligands is whether these agents could be predicted to work as antagonists or agonists.
NMR spectra were acquired on Bruker Avance III 700 MHz spectrometer equipped with a TCI cryoprobe. All NMR data were processed and analyzed using TOPSPIN 3.6.1 (Bruker, Billerica, Mass., USA).
Chemical shift changes (A) in the 2D [^13C, ^1H] spectra were calculated as weight average perturbations observed in the ^1H and ^13C dimensions using the following Equation: […]

Aqueous solubility = format: physicochemical
[3] = system: mouse motor neurons co-cultured with iAstrocytes derived from sALS patients; experiment: Co-culture of sALS patient derived iAstrocytes and motor neurons (motor neuron survival); format: cell-based; conditions: 100 μM
From the text: EphA4 has been directly implicated in the progression of ALS in mice models and in human genetic studies. While the mechanisms for onset and progression of ALS remain largely undetermined, astrocytes have been implicated as significant contributors to motor neuron death in both in familial ALS (fALS), that is driven by inactivating mutations within the superoxide dismutase 1 (SOD1) gene and that account for less than 2% of all ALS cases, (Di Giorgio et al., Nat Neurosci, 10 (5): 608-614, (2007); Nagai et al., Nat Neurosci, 10 (5): 615-622, (2007); Yamanaka et al., Nat Neurosci, 11 (3): 251-253, (2008)) and the more common sporadic form of ALS (sALS). […] Recently, it was shown that astrocytes derived from both patient groups are similarly toxic to motor neurons (Haidet-Phillips et al., Nat Biotechnol, 29 (9): 824-828, (2011)).
Induced Astrocytes were generated by seeding a low quantity of NPCs into astrocyte medium (DMEM media containing 10% FBS and 0.2% N2) for five days. Following differentiation, iAstrocytes were lifted and seeded into a 96 well (10,000 cells per well).
Cells are sorted through a 100 micron tip with sheath pressure of 27. GFP+ motor neurons were seeded in a 96 well plate (10,000 cells per well). Co-cultures were imaged with InCell for up to three days. Motor neurons with neurite outgrowth of greater than 50 um were counted as alive.

EphA4 = conditions: reported previously; cited from earlier work
[4] = system: SOD1(G93A) transgenic mice; conditions: SOD1(G93A) models, literature; cited from earlier work
[5] = ITC with the ligand binding domain, Table 8, read-out: Kd (nM) vs EphA4

T1 sequence (P54764 29-209 C204A): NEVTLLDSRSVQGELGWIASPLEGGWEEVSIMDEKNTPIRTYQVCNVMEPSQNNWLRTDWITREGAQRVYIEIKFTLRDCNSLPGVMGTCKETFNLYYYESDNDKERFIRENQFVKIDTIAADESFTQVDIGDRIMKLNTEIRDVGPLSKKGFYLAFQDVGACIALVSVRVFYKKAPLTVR
T2 sequence (P54764 29-209 C204A): as above

SMILES | Kd [1] [nM] | -TΔS ([1]; ITC, EphA4-LBD) [kcal/mol] | AH ([1]; ITC, EphA4-LBD) [kcal/mol] | Δδ ^13C^ϵ/^1H^ϵ Met 164 [2] | Kd [1, 5] [nM] | Δδ Met 60 [2] | Δδ Met 115 [2] | Δδ Met 164 [2] | Aqueous Solubility (Aqueous solubility) [mM] | Kd ([1]; ITC, EphA4-LBD, read-out: Kd (nM)- ITC) [nM] | protection of motor neurons from sALS astrocytes-induced death [3] | agonistic activity for EphA4 in primary cortical neurons (EphA4) | disease onset / survival [4]
COc1ccc2[nH]cc(C[C@H](NC(=O)[C@H]3CCC[C@H](N)C3)C(=O)N[C@@H](Cc3ccc(-c4ccccc4)cc3)C(=O)N[C@@H](CCCCNC(=N)N)C(=O)NCC(=O)Nc3ccc(CN4CCOCC4)cc3)c2c1 [Compound 4] ({Cyclohexanoyl(1S,3S-3-NH2)}-[Trp(5-OMe)][Bip][hArg]G-{NHPh(4-CH2-morpholino)}) | 100 | -3.57 | -5.99 | +++ (0.2< +++ <0.25) |  |  |  |  |  |  |  |  | 
N=C(N)NCCCC[C@H](NC(=O)[C@H](Cc1ccc(-c2ccccc2)cc1)NC(=O)[C@H](Cc1c[nH]c2ccc(O)cc12)NC(=O)[C@H]1CCC[C@H](N)C1)C(=O)NCC(=O)Nc1ccc(N2CCNCC2)cc1 [Compound 10] ({Cyclohexanoyl(1S,3S-3-NH2)}-[Trp(5-OH)][Bip][hArg]G-X3) | 90 | -1.35 | -8.27 | ++++ (++++ >0.25 ppm) |  |  |  |  |  |  |  |  | 
N=C(N)NCCCC[C@H](NC(=O)[C@H](Cc1ccc(-c2ccccc2)cc1)NC(=O)[C@H](Cc1c[nH]c2ccc(O)cc12)NC(=O)[C@H]1CCC[C@H](N)C1)C(=O)NCC(=O)Nc1ccc(CN2CCOCC2)cc1 [Compound 9, (1S,3S)—N—((S)-1-(((S)-3-([1,1′-biphenyl]-4-yl)-1-(((S)-6-guanidino-1-((2-((4-(morpholinomethyl)phenyl)amino)-2-oxoethyl)amino)-1-oxohexan-2-yl)amino)-1-oxopropan-2-yl)amino)-3-(5-hydroxy-1H-indol-3-yl)-1-oxopropan-2-yl)-3-aminocyclohexane-1-carboxamide] ({Cyclohexanoyl(1S,3S-3-NH2)}-[Trp(5-OH)][Bip][hArg]G-{NHPh(4-CH2-morpholino)}) |  | -1.90 | -7.44 | +++ (0.2< +++ <0.25) | 144 | ++ (0.1 ppm < ++ <0.2 ppm) | + (0< + <0.1 ppm) | +++ (0.2< +++ <0.25) | >50 |  |  |  | 
COc1ccccc1-c1ccc(C[C@H](NC(=O)[C@H](Cc2c[nH]c3ccc(O)cc23)NC(=O)[C@H]2CCC[C@H](N)C2)C(=O)N[C@@H](CCCCNC(=N)N)C(=O)NCC(=O)Nc2ccc(N3CCOCC3)c(F)c2)cc1 [Compound 16] ({Cyclohexanoyl(1S,3S-3-NH2)}-[Trp(5-OH)][Phe(4-(2-MeO-Ph))][hArg]G-X2) | 127 | 0.58 | -10.00 | + (0< + <0.1 ppm) |  |  |  |  |  |  |  |  | 
COc1ccccc1-c1ccc(C[C@H](NC(=O)[C@H](Cc2c[nH]c3ccc(O)cc23)NC(=O)[C@H]2CCC[C@H](N)C2)C(=O)N[C@@H](CCCCNC(=N)N)C(=O)NCC(=O)Nc2ccc(CN3CCOCC3)cc2)cc1 [Compound 2, (1S,3S)-3-amino-N—((S)-1-(((S)-1-(((S)-6-guanidino-1-((2-((4-(morpholinomethyl)phenyl)amino)-2-oxoethyl)amino)-1-oxohexan-2-yl)amino)-3-(2′-methoxy-[1,1′-biphenyl]-4-yl)-1-oxopropan-2-yl)amino)-3-(5-hydroxy-1H-indol-3-yl)-1-oxopropan-2-yl)cyclohexane-1-carboxamide] ({Cyclohexanoyl(1S,3S-3-NH2)}-[Trp(5-OH)][Phe(4-(2-MeO-Ph))][hArg]G-{NHPh(4-CH2-morpholino)}) | 75 | -0.97 | -8.74 | + (0< + <0.1 ppm) | 77 | ++ (0.1 ppm < ++ <0.2 ppm) | + (0< + <0.1 ppm) | + (0< + <0.1 ppm) | >50 |  |  |  | 
COc1ccccc1-c1ccc(C[C@H](NC(=O)[C@H](Cc2c[nH]c3ccc(O)cc23)NC(=O)[C@H]2CCC[C@H](N)C2)C(=O)N[C@@H](CCCCNC(=N)N)C(=O)NCC(=O)Nc2ccc(N3CCOCC3)cc2)cc1 [Compound 3, (1S,3S)-3-amino-N—((S)-1-(((S)-1-(((S)-6-guanidino-1-((2-((4-morpholinophenyl)amino)-2-oxoethyl)amino)-1-oxohexan-2-yl)amino)-3-(2′-methoxy-[1,1′-biphenyl]-4-yl)-1-oxopropan-2-yl)amino)-3-(5-hydroxy-1H-indol-3-yl)-1-oxopropan-2-yl)cyclohexane-1-carboxamide] ({Cyclohexanoyl(1S,3S-3-NH2)}-[Trp(5-OH)][Phe(4-(2-MeO-Ph))][hArg]G-{NH(4-morpholinophenyl)}) |  | -0.60 | -8.92 | + (0< + <0.1 ppm) |  | + (0< + <0.1 ppm) | + (0< + <0.1 ppm) | + (0< + <0.1 ppm) | >50 | 106 |  |  | 
COc1ccc2[nH]cc(C[C@H](NC(=O)[C@H]3CCC[C@H](N)C3)C(=O)N[C@@H](Cc3ccc(-c4ccccc4OC)cc3)C(=O)N[C@@H](CCCCNC(=N)N)C(=O)NCC(=O)Nc3ccc(CN4CCOCC4)cc3)c2c1 [Compound 5] ({Cyclohexanoyl(1S,3S-3-NH2)}-[Trp(5-OMe)][Phe(4-(2-MeO-Ph))][hArg]G-{NHPh(4-CH2-morpholino)}) | 163 | -2.25 | -7.00 | ++ (0.1 ppm < ++ < 0.2 ppm) |  |  |  |  |  |  |  |  | 
COc1ccc2[nH]cc(CCNC(=O)[C@H](Cc3ccncc3)NC(=O)[C@H](Cc3ccc(Cl)cc3)NC(=O)[C@H](Cc3c[nH]c4ccc(O)cc34)NC(=O)CCCN)c2c1 [Compound 123C4, reference compound] |  |  |  |  |  | + (0< + <0.1 ppm) | + (0< + <0.1 ppm) | ++ (0.1 ppm < ++ <0.2 ppm) |  |  | to a lesser extent, 123C4 (at a higher concentration) were able to protect mouse motor neurons | induced receptor phosphorylation and growth cone collapse | significantly prolonged survival

Source: patent US20230203096A1, “EPHA4 TARGETING COMPOUNDS AND METHODS OF USE THEREOF” (priority 2020, published 2023)
